# Measurements: publication PMC12677653, “Inhibition of Tumor Lipogenesis and Growth by Peptide‐Based Targeting of SREBP Activation” (Advanced Science, 2025)
# How the values were obtained:
# Huh7 cells = test: Triglyceride (TG) detection assay, Huh7; assay type: cell-based, human; settings: peptide 25 µM, IGF1 100 ng/mL 24 h, n = 3
# Experimental: Figure 1 The Insig1/2 loop 1 peptide binds to S90‐phosphorylated PCK1 and blocks PCK1‐mediated SREBP activation and tumor cell proliferation. Immunoblotting analyses were performed using the indicated antibodies; representative results from three independent experiments are shown (IP, immunoprecipitation; WB, western blot). a) Huh7 cells expressing various Insig1 (top) or Insig2 (bottom) truncation mutants were treated with or without IGF1 (100 ng mL^−1) for 1 h. b,c) Biolayer interferometry assays (Sartorius Octet) were employed to measure the binding affinity of Insig1/2 loop 1 peptide to GST‐PCK1 or GST‐PCK1 pS90 proteins. […] Statistical significance was determined by one‐way analysis of variance (ANOVA). g) Following pretreatment with Insig1/2 loop 1 peptide (15 µM) and IGF1 stimulation (100 ng mL^−1, 8 h), Huh7 cells were subjected to immunofluorescence analysis (scale bar: 10 µm). h) Quantitative PCR analysis of SREBP1 target gene GPAM in Huh7 cells pretreated with Insig1/2 loop 1 peptide (15 µM) and stimulated with IGF1 (100 ng mL^−1) for 10 h. […] Statistical significance was determined by one‐way analysis of variance (ANOVA). i) Quantitative PCR analysis of SREBP1 target gene FASN in Huh7 cells pretreated with Insig1/2 loop 1 peptide (15 µM) and stimulated with IGF1 (100 ng mL^−1) for 10 h. […]
# tumor cell apoptosis = test: TUNEL assay of tumor tissues; assay type: in vivo, BALB/c athymic nude mice; settings: cryosections of Huh7 tumors, n = 4; peptide given as LNP 10 mg/kg iv; lenvatinib mesylate 2 mg/kg oral
# Experimental: Representative micrographs are shown (scale bar: 20 µm). b,c) Cryosections of mouse tumor tissues were prepared for histological analysis. (b) Lipid accumulation was assessed by Oil Red O staining. Representative micrographs are shown (scale bar: 20 µm). (c) Apoptotic cells were detected by TUNEL assay. Representative micrographs are shown (scale bar: 20 µm). d,e) Quantitative analysis of (d) apoptotic areas (TUNEL‐positive regions) and (e) lipid droplet counts (Oil Red O‐positive particles) was performed. Data represent the mean ± SD (n = 4). Statistical significance was determined by one‐way analysis of variance (ANOVA). ** p < 0.01, **** p < 0.0001, ns, no significance.
# Mouse tumor tissues were sectioned at 5 µm thickness. Apoptotic cells were counted using the colorimetric TUNEL System (Beyotime, C1091) according to the manufacturer's instructions. The total numbers of apoptotic cells were counted in six high‐power fields and presented as an average number of apoptotic cells per high‐power fields.
# [1] = Safety in mice: H&E staining of organs and blood examination; assay type: in vivo; settings: given iv as LNPs, 10 mg/kg
# Experimental: c-k) The LNP@Insig1/2 loop 1 peptide or PBS (control) was administered intravenously to 6-week-old nude mice (n = 4 per group) at a dose of 10 mg kg^-1 body weight. (c)Mice heart, liver, spleen, lung and kidney were harvested for H&E staining (scale bar: 50 μm). Mouse blood was collected for (d) ALT, (e) AST, (f) ALB, (g) ALP, (h) BUN, (i) UA, (j) CR, (k) CK analysis. ALT, alanine aminotransferase; AST, aspartate transaminase; ALB, albumin; ALP, alkaline phosphatase; BUN, blood urea nitrogen; UA, uric acid; CR, creatinine; CK, creatine kinase. Data are expressed as mean ± SD. Comparisons between the two groups were performed using Student's t-test.
sequence,measurement,setting,value
RKKRRQRRRLYPCIDSHLGEPHKFKRE [Insig1/2 loop 1 peptide],IGF1-induced increase in triglycerides (TGs),Huh7 cells,reduced
same,cell apoptosis in tumor tissues (TUNEL),tumor cell apoptosis,induced cell apoptosis in tumor tissues
same,toxicity (overall conclusion),[1],limited toxicity
